Assay results taken from publication PMC6332318, “Synthetic Development of New 3-(4-Arylmethylamino)butyl-5-arylidene-rhodanines under Microwave Irradiation and Their Effects on Tumor Cell Lines and against Protein Kinases” (Molecules, 2015).
pIC50: −log10 of the molar value. Like-named read-outs stand apart in the source and are kept apart here.

Key:
diploid skin fibroblasts = experiment: in vitro inhibition of cell proliferation / survival assay, normal cells control; type: cell-based; conditions: for viability at 25 µM: read-out: % of Survival
Protocol: (§1) As an initial effort to investigate their in vitro bioactivity, the new synthesized 3-(4-arylmethylamino)butyl-2-thioxo-1,3-thiazolidine-4-one 9a–n and also their precursors 6a–f were evaluated for their in vitro inhibition of cell proliferation. For this study, we used a panel of seven representative tumoral cell lines, namely HuH7 D12 (differential hepato cellular carcinoma), Caco 2 (differentiating colorectal adenocarcinoma), MDA-MBD231 ([…]), HCT 116 (actively proliferating colorectal adenocarcinoma), PC3 (prostate carcinoma), NCI-H727 (lung carcinoma), HaCat keratinocyte and, diploid skin fibroblasts as normal cell lines for control.
(§2) Skin diploid fibroblastic cells were provided by BIOPREDIC International Company (Rennes, France). Caco2 (Ref ECACC: 86010202), Huh-7D12 (Ref ECACC: 01042712), MDA-MB-231 (Ref ECACC: 92020424), HCT-116 (Ref ECACC: 91091005), PC3 (Ref ECACC: 90112714), NCI-H727 (Ref ECACC: 94060303) cell lines were obtained from the ECACC collection and HaCaT (from Cell Lines Service, Eppelheim, Germany). Cells were grown according to ECACC recommendations. The toxicity test of the compounds on these cells was as follows: 2 × 10^3 cells for HCT-116 cells or 4 × 10^3 for the other cells were seeded in 96 multiwell plates in triplicate and left for 24 h for attachment, spreading and growing. Then, cells were exposed for 48 h to increasing concentrations of the compounds, ranging from 0.1 to 25 μM in a final volume of 120 μL of culture medium. Cells were fixed in cooled solution of 90% ethanol/5% acetic acid, nuclei were stained with Hoechst 3342 (Sigma) and counted using automated imaging analysis (Cellomics Arrayscan VTI/HCS Reader, Thermo/Scientific, Waltham, MA, USA). The IC50 were graphically determined.

[1] = system: Caco 2 cells (differentiating colorectal adenocarcinoma); experiment: in vitro inhibition of cell proliferation / survival assay; type: cell-based; conditions: for viability at 25 µM / pIC50: Homo sapiens; for viability at 25 µM / % of Survival: measured at 25 μM after 48 h, single dose, triplicate; for pIC50: 48 h, average of three assays, standard error ± 0.5 μM
Protocol: as §1, §2

[2] = system: Huh7 D12 cells (differential hepato cellular carcinoma); experiment: as above; type: cell-based; conditions: for viability at 25 µM: Huh-7D12, measured at 25 μM after 48 h; for viability at 25 µM / % of Survival: single dose, triplicate; for pIC50: Huh-7D12, 48 h, average of three assays, standard error ± 0.5 μM; for % of Survival: measured at 25 μM after 48 h
Protocol: as §1, §2

HaCat keratinocyte = experiment: as above; type: cell-based; conditions: for viability at 25 µM / pIC50: Homo sapiens; for viability at 25 µM / % of Survival: measured at 25 μM after 48 h, single dose, triplicate; for pIC50: HaCaT, 48 h, average of three assays, standard error ± 0.5 μM
Protocol: as §1, §2

[3] = system: HCT 116 cells (actively proliferating colorectal adenocarcinoma); experiment: as above; type: cell-based; conditions: for viability at 25 µM / pIC50: Homo sapiens; for viability at 25 µM / % of Survival: measured at 25 μM after 48 h, single dose, triplicate; for pIC50: 48 h, average of three assays, standard error ± 0.5 μM
Protocol: as §1, §2

MDA-MB231 cells = experiment: as above; type: cell-based; conditions: for viability at 25 µM / pIC50: Homo sapiens; for viability at 25 µM: MDA-MB-231, measured at 25 μM after 48 h; for viability at 25 µM / % of Survival: single dose, triplicate; for pIC50: MDA-MB-231, 48 h, average of three assays, standard error ± 0.5 μM; for % of Survival: measured at 25 μM after 48 h
Protocol: as §1, §2

[4] = system: NCI-H727 cells (lung carcinoma); experiment: as above; type: cell-based; conditions: for viability at 25 µM: Homo sapiens, read-out: % of Survival
Protocol: as §1, §2

[5] = system: PC3 cells (prostate carcinoma); experiment: as above; type: cell-based; conditions: for viability at 25 µM: PC-3, measured at 25 μM after 48 h; for viability at 25 µM / % of Survival: single dose, triplicate; for % of Survival: measured at 25 μM after 48 h
Protocol: as §1, §2

[6] = Skin fibroblast, Fibroblasts, measured at 25 μM after 48 h, single dose, triplicate
[7] = NCI-H727, measured at 25 μM after 48 h, single dose, triplicate
[8] = Fibroblasts, measured at 25 μM after 48 h, single dose, triplicate

melting point	Structure (SMILES)	viability at 25 µM (diploid skin fibroblasts; [6])	viability at 25 µM [1]	viability at 25 µM [2]	viability at 25 µM (HaCat keratinocyte)	viability at 25 µM [3]	viability at 25 µM (MDA-MB231 cells)	viability at 25 µM [4, 7]	viability at 25 µM ([5]; Homo sapiens)	further results
255 to 261 °C	COc1ccc(CNCCCCN2C(=O)/C(=C/c3ccc4c(c3)OCCO4)SC2=S)cc1 [Compound 9c, (5Z)3-[4-(4-Methoxyphenylmethylamino)butyl]-5-(2,3-dihydro-1,4-benzodioxin-6-ylmethylene)-2-thioxo-1,3-thiazolidin-4-one]	102%	93%	88%	101%	97%	92%	95%	97%	–
–	CC(=O)O[C@H]1C(=O)[C@@]2(C)[C@H]([C@H](OC(=O)c3ccccc3)[C@]3(O)C[C@H](OC(=O)[C@H](O)[C@@H](NC(=O)c4ccccc4)c4ccccc4)C(C)=C1C3(C)C)[C@]1(OC(C)=O)CO[C@@H]1C[C@@H]2O [Taxol, reference compound]	76%	29%	36%	11%	9%	41%	59%	35%	pIC50 (diploid skin fibroblasts; Skin fibroblast, Fibroblasts, 48 h, average of three assays, standard error ± 0.5 μM): < 4.60; pIC50 [1]: 7.40; pIC50 [2]: 8.52; pIC50 (HaCat keratinocyte): 9.00; pIC50 [3]: > 9.00; pIC50 (MDA-MB231 cells): 7.40; pIC50 ([5]; Homo sapiens, PC-3, 48 h, average of three assays, standard error ± 0.5 μM): > 9.00
–	Cl.NCCCCNCc1ccccc1Cl [Compound 6c, N-1-(2-Chloro-phenylmethyl)-butane1,4-diamine hydrochloride]	–	–	–	–	–	–	–	–	% of Survival (diploid skin fibroblasts; [8]): 84%; % of Survival [1]: 93%; % of Survival [2]: 82%; % of Survival (HaCat keratinocyte): 80%; % of Survival [3]: 98%; % of Survival (MDA-MB231 cells): 102%; % of Survival [4, 7]: 100%; % of Survival [5]: 96%
–	Cl.NCCCCNCc1ccc2c(c1)OCCO2 [Compound 6f, N-1-(2,3-Dihydro-benzo[1,4]dioxin-6-ylmethyl)-butane-1,4-diamine hydrochloride]	–	–	–	–	–	–	–	–	% of Survival (diploid skin fibroblasts; [8]): 105%; % of Survival [1]: 109%; % of Survival [2]: 88%; % of Survival (HaCat keratinocyte): 94%; % of Survival [3]: 96%; % of Survival (MDA-MB231 cells): 99%; % of Survival [4, 7]: 92%; % of Survival [5]: 97%
–	O=C1/C(=C/c2ccc3c(c2)OCO3)SC(=S)N1CCCCNCc1ccc2c(c1)OCCO2 [Compound 9l, (5Z)-[4-(2,3-Dihydro-benzo[1,4]dioxin-6-ylmethylamino)butyl]-5-(1,3-benzodioxol-5-ylmethylene)-2-thioxo-1,3-thiazolidin-4-one]	128%	105%	90%	95%	106%	98%	96%	93%	–
–	COc1cccc(CNCCCCN2C(=O)/C(=C/c3ccc4c(c3)OCO4)SC2=S)c1 [Compound 9e, (5Z)3-[4-(3-Methoxyphenylmethylamino)butyl]-5-(1,3-benzodioxol-5-ylmethylene)-2-thioxo-1,3-thiazolidin-4-one]	122%	97%	74%	86%	99%	97%	102%	85%	–
200 to 203 °C	COc1cc(/C=C2\SC(=S)N(CCCCNCc3ccc4c(c3)OCO4)C2=O)ccc1O [Compound 9k, (5Z)3-[4-(1,3-Benzodioxol-5-ylmethylamino)butyl]-5-(4-hydroxy-3-methoxybenzylidene)-2-thioxo-1,3-thiazolidin-4-one]	84%	98%	72%	80%	98%	92%	96%	83%	–
–	O=C1/C(=C/c2ccc3c(c2)OCCO3)SC(=S)N1CCCCNCc1ccc2c(c1)OCCO2 [Compound 9m, (5Z)3-[4-(2,3-Dihydro-benzo[1,4]dioxin-6-ylmethylamino)butyl]-5-(2,3-dihydro-benzo[1,4]dioxin-6-ylmethylene)-2-thioxo-1,3-thiazolidin-4-one]	149%	107%	97%	94%	103%	99%	98%	96%	–
> 260 °C	Cl.NCCCCNCc1ccc2c(c1)OCO2 [Compound 6e, N-1-Benzo[1,3]dioxol-5-ylmethyl-butane-1,4-diamine hydrochloride]	93%	106%	91%	96%	102%	102%	98%	96%	–
170 to 229 °C (dec.)	COc1ccc(CNCCCCN2C(=O)/C(=C/c3ccc4c(c3)OCO4)SC2=S)cc1 [Compound 9a, (5Z)3-[4-(4-Methoxyphenylmethylamino)butyl]-5-(1,3-benzodioxol-5-ylmethylene)-2-thioxo-1,3-thiazolidin-4-one]	104%	109%	85%	103%	109%	100%	104%	92%	–
–	CC[C@H](CO)Nc1nc(NCc2ccccc2)c2ncn(C(C)C)c2n1 [Roscovitine, reference compound]	–	–	–	–	–	–	–	–	viability at 25 µM (diploid skin fibroblasts; Skin fibroblast, 48 h): 53%; viability at 25 µM ([4]; NCI-H727, 48 h): 30%
–	COc1ccc(CNCCCCN)cc1.Cl [Compound 6b, N-1-(4-Methoxy-phenylmethyl)-butane1,4-diamine hydrochloride]	–	–	–	–	–	–	–	–	% of Survival (diploid skin fibroblasts; [8]): 100%; % of Survival [1]: 114%; % of Survival [2]: 107%; % of Survival (HaCat keratinocyte): 106%; % of Survival [3]: 112%; % of Survival (MDA-MB231 cells): 100%; % of Survival [4, 7]: 86%; % of Survival [5]: 100%
225 to 227 °C	COc1cccc(/C=C2\SC(=S)N(CCCCNCc3cccc(OC)c3)C2=O)c1 [Compound 9g, (5Z)3-[4-(3-Methoxyphenylmethylamino)butyl]-5-(3-methoxybenzylidene)-2-thioxo-1,3-thiazolidin-4-one]	100%	117%	111%	110%	118%	104%	95%	98%	–
–	COc1cccc(CNCCCCN)c1.Cl [Compound 6d, N-1-(3-Methoxy-phenylmethyl)-butane-1,4-diamine hydrochloride]	–	–	–	–	–	–	–	–	% of Survival (diploid skin fibroblasts; [8]): 93%; % of Survival [1]: 111%; % of Survival [2]: 107%; % of Survival (HaCat keratinocyte): 96%; % of Survival [3]: 111%; % of Survival (MDA-MB231 cells): 99%; % of Survival [4, 7]: 92%; % of Survival [5]: 98%
–	COc1cccc2c1C(=O)c1c(O)c3c(c(O)c1C2=O)C[C@@](O)(C(=O)CO)C[C@@H]3O[C@H]1C[C@H](N)[C@H](O)[C@H](C)O1 [Doxorubicine, reference compound]	74%	43%	63%	88%	22%	82%	65%	34%	pIC50 [1]: 7.52; pIC50 [2]: 7.52; pIC50 (HaCat keratinocyte): 7.70; pIC50 [3]: 7.52; pIC50 (MDA-MB231 cells): 8.00
